Assay [1] has as its system β-catenin-TCF-mediated reporter transcription activity in Colo 205 cells. Description: Colo 205 reporter assay (TCF/LEF luciferase). In kind it is cell-based. Particulars: Colo 205 TCF/LEF luciferase reporter, five hours after addition of compound, read-out: TCF reporter Colo205 IC50. A digest of the protocol: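 Luciferase signal from a TCF/LEF-driven reporter, stably integrated in Colo 205 colon cancer cells, was measured 5 h after compound addition.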
Background: Reporter assays use an easily measured gene product as a stand-in for the process of interest.

Assay [2] relates to Colo205-TCF/LEF-Luciferase (Luc) tumor. In words: In vivo inhibition of TCF/LEF reporter activity in Colo-205 tumors. More on the design: concentration or dose not given beside the values. Particulars: TCF/LEF luciferase reporter in Colo-205 tumors, nu/nu mice, oral gavage. A digest of the protocol: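 Female nu/nu mice carried subcutaneous Colo205-TCF/LEF-luciferase tumours (200–500 mm^3), n=4 per group. Compound was given by oral gavage in 1:3:5:1 EtOH:DMSO:PEG-400:H2O at 10 ml/kg, with vehicle as control. Luciferase activity in tumour lysates (Steady-Glo) was normalised to BCA protein.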

The target of the next assay is Plk1 (Homo sapiens (Human), UniProt P53350). In words: PLK1 inhibition assay (radioactive-phosphate incorporation). To be noted: Ki(app), read-out: PLK1 - 33P.ENZ - CB 10 Ki. In kind it is biochemical. On the procedure: Compounds were screened for their ability to inhibit Plk1 using a radioactive-phosphate incorporation assay. Assays were carried out in a mixture of 25 mM HEPES (pH 7.5), 10 mM MgCl2, 25 mM NaCl, and 2 mM DTT. Final substrate concentrations were 20 μM [γ-33P]ATP (35mCi 33P ATP/mmol ATP, Perkin Elmer/Sigma Chemicals) and 9 uM Sam68 protein. Assays were carried out at room temperature in the presence of 15 nM Plk1. An assay stock buffer solution was prepared containing all of the reagents listed above, with the exception of ATP and the test compound of interest. 0.75 μL of DMSO stock containing serial dilutions of the test compound (typically starting from a final concentration of 10 μM with 2-fold serial dilutions—final DMSO concentration 1.5%) was placed in a 384 well plate followed by addition of 25 μL [γ-33P]ATP (final concentration 20 μM). The reaction was initiated by addition of 25 μL of the assay stock buffer solution.
Sequence of Plk1 (P53350 whole entry, species assumed): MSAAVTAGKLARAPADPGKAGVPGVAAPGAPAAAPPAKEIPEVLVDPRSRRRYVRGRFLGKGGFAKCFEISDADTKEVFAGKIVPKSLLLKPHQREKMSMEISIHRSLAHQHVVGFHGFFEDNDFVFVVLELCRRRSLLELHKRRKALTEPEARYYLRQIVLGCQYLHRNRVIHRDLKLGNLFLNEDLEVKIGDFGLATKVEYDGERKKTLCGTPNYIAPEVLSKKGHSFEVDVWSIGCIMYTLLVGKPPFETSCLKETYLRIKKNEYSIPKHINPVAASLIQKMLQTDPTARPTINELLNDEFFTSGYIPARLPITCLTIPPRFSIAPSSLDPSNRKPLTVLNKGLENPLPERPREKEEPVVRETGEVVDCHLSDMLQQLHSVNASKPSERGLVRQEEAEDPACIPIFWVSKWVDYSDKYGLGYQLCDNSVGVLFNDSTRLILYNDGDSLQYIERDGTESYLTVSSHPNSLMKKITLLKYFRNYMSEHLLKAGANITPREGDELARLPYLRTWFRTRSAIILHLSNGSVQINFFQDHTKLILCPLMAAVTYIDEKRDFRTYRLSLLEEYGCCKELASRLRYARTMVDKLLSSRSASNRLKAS
The reaction was stopped after 45 minutes by the addition of 25 μL 30% trichloroacetic acid (TCA) containing 10 mM cold ATP. The entire quenched reaction was transferred to a 384-well glass fiber filter plate (Millipore, Cat no. MZFBNOW50). The plate was washed with 3×5% TCA. After drying, 40 μL of Ultima Gold liquid scintillation cocktail (Perkin Elmer) was added to the well prior to scintillation counting in a PerkinElmer TopCount.
After removing mean background values for all of the data points, Ki(app) data were calculated from non-linear regression analysis of the initial rate data using the Prism software package (GraphPad Prism, GraphPad Software, San Diego California, USA).

The structures appear in SMILES notation. Where two headings read alike, the source gives them in different places.

Usually IC50 stands for the midpoint of a concentration-inhibition curve.

With `Cc1nc(NCc2cnn(Cc3cc(F)c(F)c(F)c3)c2)nc2c1N(C)C(=O)[C@H](C)N2C` [Compound 14, (7S)-4,5,7,8-tetramethyl-2-(((1-(3,4,5-trifluorobenzyl)-1H-pyrazol-4-yl)methyl)amino)-7,8-dihydropteridin-6(5H)-one], the IC50 in assay [1] (Homo sapiens, COLO 205, 5 h) was under 300 nM. Further, the “Percent Remaining Activity at 8 hrs after Dosing” value (“Percent Remaining Activity” for short) in assay [2] is on record as 33%. The Ki on Plk1 is over 4000 nM.
With `COc1c(F)cc(Cn2cc(CNc3ncc4c(n3)N(C)[C@@H](C)C(=O)N4)cn2)cc1F` [Compound 44, (7S)-2-(((1-(3,5-difluoro-4-methoxybenzyl)-1H-pyrazol-4-yl)methyl)amino)-7,8-dimethyl-7,8-dihydropteridin-6(5H)-one], the IC50 in assay [1] (Homo sapiens, COLO 205, 5 h) was under 300 nM. The Ki on Plk1 was over 4000 nM.
For `Cc1nc(NCc2cnn(Cc3cccc(C(F)(F)F)c3)c2)nc2c1NC(=O)[C@H](C)N2C` [Compound 47, (7S)-4,7,8-trimethyl-2-(((1-(3-(trifluoromethyl)benzyl)-1H-pyrazol-4-yl)methyl)amino)-7,8-dihydropteridin-6(5H)-one], the IC50 in assay [1] (Homo sapiens, COLO 205, 5 h) was under 300 nM. Further, the Ki on Plk1 is over 4000 nM.
Consider `CCN1C(=O)[C@H](CCO)N(CC)c2nc(NCc3cnn(Cc4cc(F)c(OC)c(F)c4)c3)ncc21` [Compound 48, (7S)-2-(((1-(3,5-difluoro-4-methoxybenzyl)-1H-pyrazol-4-yl)methyl)amino)-5,8-diethyl-7-(2-hydroxyethyl)-7,8-dihydropteridin-6(5H)-one], for which, in assay [1] (Homo sapiens, COLO 205, 5 h), the IC50 was under 300 nM. The Ki on Plk1 was over 4000 nM.
`C[C@H]1C(=O)Nc2cnc(NCc3cnn(Cc4cc(F)c(O)c(F)c4)c3)nc2N1C` [Compound 50, (7S)-2-(((1-(3,5-difluoro-4-hydroxybenzyl)-1H-pyrazol-4-yl)methyl)amino)-7,8-dimethyl-7,8-dihydropteridin-6(5H)-one]: in assay [1] (Homo sapiens, COLO 205, 5 h), the 50% inhibitory concentration (IC50) is at least 5000 nM. Also, at Plk1, the Ki was over 4000 nM.
With `CCN1C(=O)[C@H](C)N(C(C)C)c2nc(NCc3cnn(Cc4cc(F)c(F)c(F)c4)c3)ncc21` [Compound 51, (7S)-5-ethyl-8-isopropyl-7-methyl-2-(((1-(3,4,5-trifluorobenzyl)-1H-pyrazol-4-yl)methyl)amino)-7,8-dihydropteridin-6(5H)-one], in assay [1] (Homo sapiens, COLO 205, 5 h), the IC50 is under 300 nM. Also, the Ki at Plk1 is over 4000 nM.
Turning to `Cc1nc(NCc2ccc(Oc3ccc(F)cc3)nc2)nc2c1NC(=O)[C@H](C)N2C` [Compound 54, (7S)-2-(((6-(4-fluorophenoxy)pyridin-3-yl)methyl)amino)-4,7,8-trimethyl-7,8-dihydropteridin-6(5H)-one], the IC50 in assay [1] (Homo sapiens, COLO 205, 5 h) is under 300 nM. The Ki at Plk1 was over 4000 nM.
Take `Cc1nc(NCc2cnn([C@H]3C[C@H](c4ccc(F)cc4)C3)c2)nc2c1NC(=O)[C@H](C)N2C` [Compound 112, (7S)-2-(((trans-1-(3-(4-fluorophenyl)cyclobutyl)-1H-pyrazol-4-yl)methyl)amino)-4,7,8-trimethyl-7,8-dihydropteridin-6(5H)-one]: the IC50 in assay [1] (Homo sapiens, COLO 205, 5 h) was under 300 nM. Moreover, the Ki on Plk1 was over 4000 nM.
The corresponding values for `Cc1nc(NCc2cnn(CCC3CCCCC3)c2)nc2c1NC(=O)[C@H](C)N2C` [Compound 113, (7S)-2-(((1-(2-cyclohexylethyl)-1H-pyrazol-4-yl)methyl)amino)-4,7,8-trimethyl-7,8-dihydropteridin-6(5H)-one] are under 300 nM and over 4000 nM.
In the case of `Cc1nc(NCc2cnn(C3Cc4ccccc4C3)c2)nc2c1NC(=O)[C@H](C)N2C` [Compound 116, (7S)-2-(((1-(2,3-dihydro-1H-inden-2-yl)-1H-pyrazol-4-yl)methyl)amino)-4,7,8-trimethyl-7,8-dihydropteridin-6(5H)-one], in assay [1] (Homo sapiens, COLO 205, 5 h), the IC50 is under 300 nM. For the same compound, the Ki on Plk1 is over 4000 nM.
Consider `Cc1noc(C)c1Cn1cc(CNc2nc(C)c3c(n2)N(C)[C@@H](C)C(=O)N3)cn1` [Compound 138, (7S)-2-(((1-((3,5-dimethylisoxazol-4-yl)methyl)-1H-pyrazol-4-yl)methyl)amino)-4,7,8-trimethyl-7,8-dihydropteridin-6(5H)-one], for which the IC50 in assay [1] (Homo sapiens, COLO 205, 5 h) is under 300 nM. In addition, the Ki on Plk1 was over 4000 nM.
With `Cc1nc(NCc2cnn(Cc3ccc(C(F)(F)F)o3)c2)nc2c1NC(=O)[C@H](C)N2C` [Compound 192, (7S)-4,7,8-trimethyl-2-(((1-((5-(trifluoromethyl)furan-2-yl)methyl)-1H-pyrazol-4-yl)methyl)amino)-7,8-dihydropteridin-6(5H)-one], the IC50 in assay [1] (Homo sapiens, COLO 205, 5 h) is under 300 nM. Further, at Plk1, the Ki is over 4000 nM.
On to `Cc1nc(NCc2cnn(Cc3ccc(F)cc3)c2)nc2c1NC(=O)C1(CC1)N2C` [Compound 221, 2′-(((1-(4-fluorobenzyl)-1H-pyrazol-4-yl)methyl)amino)-4′,8′-dimethyl-5′,8′-dihydro-6′H-spiro[cyclopropane-1,7′-pteridin]-6′-one], for which the IC50 in assay [1] (Homo sapiens, COLO 205, 5 h) is under 300 nM. For the same compound, the Ki at Plk1 is over 4000 nM.
Turning to `Cc1nc(NCc2cnn(Cc3ccc(F)cc3)c2)nc2c1N(C)C(=O)C1(CC1)N2C` [Compound 223, 2′-(((1-(4-fluorobenzyl)-1H-pyrazol-4-yl)methyl)amino)-4′,5′,8′-trimethyl-5′,8′-dihydro-6′H-spiro[cyclopropane-1,7′-pteridin]-6′-one], the IC50 in assay [1] (Homo sapiens, COLO 205, 5 h) was under 300 nM. The “Percent Remaining Activity” value in assay [2] was found to be 39%. For the same compound, the Ki on Plk1 was over 4000 nM.
Turning to `CN1C(=O)C(C)(C)N(C)c2nc(NCc3cnn(Cc4ccc(F)cc4)c3)ncc21` [Compound 224, 2-(((1-(4-fluorobenzyl)-1H-pyrazol-4-yl)methyl)amino)-5,7,7,8-tetramethyl-7,8-dihydropteridin-6(5H)-one], the IC50 in assay [1] (Homo sapiens, COLO 205, 5 h) is under 300 nM. In addition, the Ki at Plk1 was over 4000 nM.
For the compound `CN1C(=O)C(C)(C)N(C)c2nc(NCc3cnn(Cc4cc(F)c(F)c(F)c4)c3)ncc21` [Compound 229, 5,7,7,8-tetramethyl-2-(((1-(3,4,5-trifluorobenzyl)-1H-pyrazol-4-yl)methyl)amino)-7,8-dihydropteridin-6(5H)-one], the IC50 in assay [1] (Homo sapiens, COLO 205, 5 h) is under 300 nM. Besides, the “Percent Remaining Activity” value in assay [2] stood at 49%. The Ki on Plk1 was over 4000 nM.
In the case of `CCN1C(=O)[C@@](C)(CC)N(CC)c2nc(NCc3cnn(Cc4ccc(F)cc4)c3)ncc21` [Compound 234, (7R)-5,7,8-triethyl-2-(((1-(4-fluorobenzyl)-1H-pyrazol-4-yl)methyl)amino)-7-methyl-7,8-dihydropteridin-6(5H)-one], the concentration for half-maximal inhibition (IC50) in assay [1] lay within 300 to 1000 nM. In addition, the Ki on Plk1 is over 4000 nM.
For `Cc1nc(N[C@@H]2CC[C@@H](Oc3cc(F)c(F)c(F)c3)C2)nc2c1NC(=O)[C@H](C)N2C` [Compound 267, (S)-4,7,8-trimethyl-2-(((1R,3R)-3-(3,4,5-trifluorophenoxy)cyclopentyl)amino)-7,8-dihydropteridin-6(5H)-one], the IC50 in assay [1] (Homo sapiens, COLO 205, 5 h) was under 300 nM. The Ki at Plk1 was over 4000 nM.
As for `Cc1nc(N[C@H]2CC[C@H](Oc3cc(F)c(F)c(F)c3)C2)nc2c1NC(=O)[C@H](C)N2C` [Compound 268, (S)-4,7,8-trimethyl-2-(((1S,3S)-3-(3,4,5-trifluorophenoxy)cyclopentyl)amino)-7,8-dihydropteridin-6(5H)-one], the IC50 in assay [1] lay in the range of 300 to 1000 nM. Moreover, the Ki on Plk1 is over 4000 nM.
As to `Cc1nc(N[C@H]2C[C@@H](Cn3nccc3C(F)(F)F)C2)nc2c1NC(=O)[C@H](C)N2C` [Compound 275, (7S)-4,7,8-trimethyl-2-((cis-3-((5-(trifluoromethyl)-1H-pyrazol-1-yl)methyl)cyclobutyl)amino)-7,8-dihydropteridin-6(5H)-one], the IC50 in assay [1] (Homo sapiens, COLO 205, 5 h) is under 300 nM. The Ki at Plk1 was over 4000 nM.

The values are drawn from patent US20230312587A1, “PTERIDINONE COMPOUNDS AND USES THEREOF” (Vertex Pharmaceutical Incorporated, priority 2018, published 2023).
